From patent US11661404B2, “Prodrug compounds activated by AKR1C3 and their use for treating hyperproliferative disorders” (priority 2018, dated 2023)
Where two headings read alike, the source gives them in different places.

Experiments:
[1] = tested on: wild-type PLC/PRF/5 hepatocellular carcinoma cells; assay: Anti-proliferative IC50 assay, wild-type PLC/PRF/5; format: cell-based, human; conditions: for IC50: Homo sapiens, PLC-PRF-5
Description: Four hundred cells were seeded in a volume of 100 μL in each well of a 96-well plate. The cells were left in a humidified incubator (37° C., 5% CO2) for 2 hours in order to enable attachment to the surface of the wells prior to compound addition. All compounds were prepared as stocks in DMSO and stored at −80° C. Frozen stocks of compounds were thawed immediately prior to addition to cells. Working solutions of each compound were made in α-MEM+5% FBS (v/v) at 3 times the required final concentration for the top well. The final concentration of DMSO in the α-MEM solution was ensured to not exceed 1% of the total volume. 50 μL of the working solution was added to the top wells (in duplicates) and gently mixed. The solubility of some compounds precluded the working solution in α-MEM to be 3 times the desired top well concentration. […] A 3-fold serial dilution was carried out along the plate starting from the top well. The first column of wells on the plate served as blanks (containing α-MEM+FBS) and the second column served as control wells (containing cells with no compound added). Following compound addition, the plates were incubated for 4 hours in a humidified incubator (37° C., 5% CO2).
Following the 4 hour compound exposure, the 96-well plates were washed three times by aspirating media with an Immuno Washer (Nunc) and each well replaced with 150 μL of α-MEM+5% (v/v) FBS+1% (v/v) P/S. The plates were left in a humidified incubator (37° C., 5% CO2) for 5 days to enable cell growth. The cells in 96-well plates were fixed 5 days after compound exposure by adding 50 μL of a 40% (w/v) trichloroacetic acid (TCA) solution so as to obtain a final TCA concentration of 10% in each well. The plates were left in the refrigerator (4° C.) for 1 hour and subsequently rinsed 3 times in tap water. Any excess water was left to drain and the cells were stained with 50 μL of 0.4% (w/v) sulforhodamine B (SRB). The plates with the SRB stain were left in the dark for 30 minutes. Excess stain was removed from the wells by rinsing the plates 4 times in water containing 1% (v/v) acetic acid. The stain was solubilised by adding 100 μL of 10 mM unbuffered Tris (pH 10.5) to each well and the plates were left in a shaker in a dark environment at room temperature for at least 1 hour. The absorbance values of the wells were determined by an ELx 808 Absorbance Microplate Reader (Bio-Tek Instruments, Winooski, Vt., USA), with the wavelength of the measurement filter set at 490 nm and a reference filter set at 450 nm. The absorbance of the reference filter was subtracted from the measurement filter to obtain a final absorbance of λ490-450 nm. The absorbance data was analysed and IC50 values determined by the KC4 microplate data analysis software (KC4™ V3.4, Bio-Tek).
Anti-proliferative IC50 assays were repeated as described above including the addition of 3 μM SN34037, a selective and potent small molecule inhibitor of AKR1C3.
Materials and methods used are as described for Example 9.

[2] = tested on: H460 lung cancer xenografts; assay: Tumour growth delay, H460 xenografts; format: in vivo, NIH-III mice; conditions: q4dx3 intraperitoneal; for tolerability of schedule: 237, 178 and 178 μmol/kg
Excerpt: Specific pathogen-free female homozygous nude NIH-III (NIH-Lyst^bg Foxn1^nu Btk^xid) mice were bred by the Vernon Jansen Unit (shared vivarium, University of Auckland). Animals were housed in Techniplast microisolator cages and provided with a standard twelve hour day-night light schedule. Animals received standard rodent diet (Harlan Teklad diet 2018i) and water ad libitum. All animal studies were approved by the University of Auckland Animal Ethics Committee.
Animals weighed 18-25 g at the time of tumour inoculation. Tumours were grown subcutaneously on the right flank of mice by inoculating cells grown in tissue culture (1×10^7 cells in 100 uL serum free α-MEM). Tumour sizes were monitored three times weekly using electronic callipers and treatments were initiated once tumour diameter reached ≥7 mm.
Tumour bearing mice were randomised into the appropriate treatment groups and tumour size and body weight recorded. Test compounds were formulated on the day of the experiment and kept in foil-wrapped tubes out of direct fluorescent light. If recruitment of animals occurred over multiple days, the drug stocks were aliquoted into tubes and frozen once at −80° C. until required. Mice were treated with a single (or q4dx3 or q4dx4 or q4dx6) dose of a compound of the invention by intraperitoneal injection and thereafter tumour size and body weight was monitored every second day. Tumour volume was calculated as […] (l×w×w)/6, where l is the major axis and w is the perpendicular minor axis. Animals were culled when they had reached the appropriate survival endpoint or when body weight loss exceeded 20% of the pre-treatment value.

AKR1C3 mixed MCLs = conditions: cited from earlier work
[3] = Stability in solution by HPLC in water and lactate buffer; format: physicochemical; conditions: room temperature
Description: (§1) The solubility and stability of compound 641 was studied by HPLC in lactate buffer (pH 4) and water as the free base and the mesylate salt (641.Ms) at 0° C. and room temperature (RT). […] However, this was improved considerably by formulation as the mesylate salt, producing a solubility of greater than 100 mmol/L in lactate buffer and greater than 70 mmol/L in water. […] This stability was improved considerably by reducing the temperature of the solution to 0° C.

[4] = Solubility by HPLC in water and lactate buffer; format: physicochemical; conditions: lactate buffer (pH 4), room temperature
Description: as §1

[5] = read-out: PLC/PRF/5-WT Anti-proliferative IC50
[6] = with 3 μM SN34037, read-out: PLC/PRF/5-WT +AKR1C3 Inhibitor Anti-proliferative IC50

Structure (SMILES)	IC50 [1, 5]	IC50 [1, 6]	tolerability of schedule [2]	anti-tumour efficacy (mean tumour volume) ([2]; SN34454 237, 602 178, 641 178 μmol/kg, FIG. 2)	bystander effect (literature) (AKR1C3 mixed MCLs; Foehrenbacher et al, 2013)	more cytotoxic in PLC/PRF/5 cells than SN34454 [1]	BEE reported in AKR1C3 mixed MCLs (AKR1C3 mixed MCLs; Silva, MSc Thesis)	Stability (% Parent after 24 hours), Lactate Buffer, RT ([3]; lactate buffer (pH 4))	half-life ([3]; pH 4, lactate buffer)	Solubility, Lactate Buffer, RT [4]
CN1CCN(C(=O)c2cc([N+](=O)[O-])ccc2N(CCBr)CCOS(C)(=O)=O)CC1 [SN34454, reference compound]	111 µM	131 µM	well-tolerated	anti-tumour efficacy						
CS(=O)(=O)OCCN(CCBr)c1c(C(=O)NCCO)cc([N+](=O)[O-])cc1[N+](=O)[O-] [PR-104A, 2-((2-bromoethyl)(2-((2-hydroxyethyl)-carbamoyl)-4,6-dinitrophenyl)amino)ethyl methanesulfonate, reference compound]	108 µM	181 µM			substantial bystander effect					
CN1CCN(S(=O)(=O)c2cc([N+](=O)[O-])ccc2N(CCBr)CCOS(C)(=O)=O)CC1 [Compound 602, 2-((2-bromoethyl)(2-((4-methylpiperazin-1-yl)sulfonyl)-4-nitrophenyl)amino)ethyl methanesulfonate]	1.19 µM	23.7 µM	well-tolerated			94 fold				
CN1CCN(C(=O)c2cc([N+](=O)[O-])ccc2N(CCBr)CCBr)CC1 [SN34118, reference compound]	115 µM	174 µM					52.7%			
CN1CCN(S(=O)(=O)c2cc([N+](=O)[O-])ccc2N(CCOS(C)(=O)=O)CCOS(C)(=O)=O)CC1 [Compound 641, ((2-((4-methylpiperazin-1-yl)sulfonyl)-4-nitrophenyl)azanediyl)bis(ethane-2,1-diyl) dimethanesulfonate]	1.42 µM	40.5 µM	well-tolerated					54.4%	~1440 min	3.4 mmol/L
